{"source": "patent US11419865B2", "about": "“Method for inducing a sustained immune response” (Cytocom Inc., priority 2016, dated 2022)", "key": {"[1]": {"test_system": "patients with hematologic malignancies", "test": "randomized controlled trial of quality of life (EORTC QLQ-C30), 89 hematologic cancer patients", "type": "in vivo, human", "method": "89 patients Hematologic Cancer Patients This was a randomized controlled trial assessing quality of life in patients with hematologic malignancies from a single institute in Hamedan. […] Quality of life was measured using the EORTC QLQ-C30 in four points in time (at admission, 1, 3 and 5 months follow-up).\nData were analyzed to compare quality of life in two groups. In total, 89 patients were studied (45 in treatment group and 44 in placebo group). There were no significant differences between two groups either in demographic and clinical characteristics or in baseline quality of life scores.\nThis study aimed to investigate its effect on hematologic cancer patients. This was a randomized controlled trial assessing quality of life in patients with hematologic malignancies from a single institute. […] Quality of life was measured using the EORTC QLQ-C30 in four points in time (at admission, 1, 3 and 5 months follow-up). Data were analyzed to compare quality of life in two groups. Totally, 89 patients were studied (45 in treatment group and 44 in placebo group). There were no significant differences between two groups either in demographic and clinical characteristics or in baseline quality of life scores. However, at 1 month, 3 and 5-month follow-up assessments significant differences were observed. […]."}, "[2]": {"test_system": "AIDS", "test": "3-month double-blind then open trial in 38 AIDS patients (Kaposi's sarcoma / opportunistic infection)", "type": "in vivo, human"}, "[3]": {"test_system": "children with autism", "test": "autism, 155 children in 10 studies", "type": "in vivo, human", "from_the_text": "155 children participated in 10 studies; 27 received placebo. […]."}, "[4]": {"test_system": "Hepatitis B", "test": "Hepatitis B case report", "type": "in vivo, human", "conditions": "1 mg"}, "[5]": {"test_system": "children with moderate to severe Crohn's disease", "test": "pilot clinical trial in children with moderate to severe Crohn's disease", "type": "in vivo, human", "parameters": "patients in remission (PCDAI score≤10): unit not given here", "method": "A pilot clinical trial was conducted in children with moderate to severe Crohn's disease. Fourteen subjects with a mean age of 12.3 years (range, 8 to 17 y) were enrolled. […]. Safety and toxicity were monitored by physical examinations and blood chemistries. Clinical activity was assessed by the Pediatric Crohn's Disease Activity Index (PCDAI) and Quality of life was monitored by the Impact III survey. […] […]."}, "[6]": {"test_system": "patients with active Crohn's disease", "test": "12-week study of 4.5 mg naltrexone/day in active Crohn's disease (17 patients)", "type": "in vivo, human", "method": ". Infliximab was not allowed for a minimum of 8 weeks prior to study initiation. Other therapy for Crohn's disease that was at a stable dose for 4 weeks prior to enrollment was continued at the same doses. Patients completed the inflammatory bowel disease questionnaire (IBDQ) and the short-form (SF-36) quality of life surveys and CDAI scores were assessed pretreatment, every 4 weeks on therapy and 4 weeks after completion of the study drug. Drug was administered by mouth each evening for a 12-week period. RESULTS: Seventeen patients with a mean CDAI score of 356+/−27 were enrolled."}, "[7]": {"test_system": "subjects with active Crohn's disease", "test": "randomized placebo-controlled study, forty subjects with active Crohn's disease", "type": "in vivo, human", "from_the_text": "Forty subjects with active Crohn's disease were enrolled in the study. […] Providers and patients were masked to treatment assignment. The primary outcome was the proportion of subjects in each arm with a 70-point decline in Crohn's Disease Activity Index score (CDAI). The secondary outcome included mucosal healing based upon colonoscopy appearance and histology. […]."}, "[8]": {"test_system": "women meeting criteria for fibromyalgia", "test": "fibromyalgia study in ten women", "type": "in vivo, human", "conditions": "4.5 mg", "from_the_text": "[…]. […] Baseline erythrocyte sedimentation rate predicted over 80% of the variance in drug response. […]. Which confirms the ability of Immediate release naltrexone to decree pain and inflammation."}, "[9]": {"test_system": "Shingles", "test": "shingles case report", "type": "in vivo, human", "conditions": "4.5 mg nightly from 2013; before 8 major outbreaks over 18 months", "method": "A person diagnosed with Shingles in 2010 over 18 months had 8 major outbreaks, and was treated with acyclovir, and valacyclovir, as the outbreaks continued they prescribed Lidocaine patches and pain medications. […]"}, "[10]": {"test_system": "myasthenia gravis patient", "test": "myasthenia gravis case report", "type": "in vivo, human", "conditions": "drug interrupted"}, "[11]": {"test_system": "patients with primary progressive multiple sclerosis (PPMS)", "test": "six month phase II multicenter pilot trial in primary progressive multiple sclerosis, 40 patients", "type": "in vivo, human", "method": "[…]. The primary end points were safety and tolerability. Secondary outcomes were efficacy on spasticity, pain, fatigue, depression, and quality of life. Clinical and biochemical evaluations were serially performed. Protein concentration of beta-endorphins (BE) and mRNA levels and allelic variants of the mu-opioid receptor gene (OPRM1) were analyzed."}, "[12]": {"test_system": "psoriatic arthritis patient", "test": "psoriatic arthritis case report", "type": "in vivo, human"}, "[13]": {"test_system": "patients diagnosed with fibromyalgia", "test": "open label single center study, twenty-five fibromyalgia patients", "type": "in vivo, human", "conditions": "4.5 mg"}, "[14]": {"test_system": "ovarian cancer cells", "test": "ovarian cancer cells treated with different dosing regimens of naltrexone", "type": "cell-based", "method": "[…]. They also prevent the adhesion of cancer cells to bone marrow stromal cells and thereby inhibit the enhanced secretion of migratory factors, such as interleukin (IL)-6, TNF-α, and vascular endothelial growth factor. In research experiments, ovarian cancer cells were treated with either water as the control or different dosing regimens of naltrexone to replicate high dose versus Immediate release dosing of naltrexone."}, "[15]": {"test_system": "children with autism", "test": "autism case reports"}, "[16]": {"conditions": "0.1 mg/kg orally, end of the study"}}, "data": [{"compound": "O=C1CC[C@@]2(O)[C@H]3Cc4ccc(O)c5c4[C@@]2(CCN3CC2CC2)[C@H]1O5", "note": "[Immediate release naltrexone, naltrexone]", "values": [{"measurement": "social functioning (EORTC QLQ-C30) vs placebo", "setting": "[1]; 3 mg capsules daily plus routine treatment, one month follow-up, p<0.05", "result": "better condition in the treatment group"}, {"measurement": "blood laboratory tests", "setting": "[1]; 3 mg daily", "result": "no changes in the blood laboratory tests"}, {"measurement": "social functioning, role functioning, nausea and vomiting and appetite loss vs placebo", "setting": "[1]; 3 mg daily, 3-month follow-up, all p-values<0.05", "result": "better in the treatment group"}, {"measurement": "physical, social, role functioning, global quality of life, nausea and vomiting and appetite loss vs placebo", "setting": "[1]; 3 mg daily, 5-month follow-up", "result": "significantly better"}, {"measurement": "elevated levels of serum alpha interferon (IFN-α) vs placebo", "setting": "[2]; 1.75 mg nightly at bedtime, 3-month double-blind period, p<0.01", "result": "significant drop"}, {"measurement": "survival of patients who did not show a decline in IFN-α", "setting": "[2]; 2 of the 15", "result": 13, "unit": "%"}, {"measurement": "mean IFN-α level after treatment", "setting": "[2]; 23 patients with decline, from mean 144.9 IU. over a 12-month period", "result": 11.0, "unit": "IU."}, {"measurement": "survival of patients who showed a decline in IFN-α", "setting": "[2]; Nineteen of the 23, p<0.01", "result": 83, "unit": "%"}, {"measurement": "side effects", "setting": "[2]; during the conduct of the trial", "result": "No side effects were noted"}, {"measurement": "children with statistically significant improvement in symptoms of irritability and hyperactivity", "setting": "[3]; 98 of the 128 that received naltrexone", "result": 77, "unit": "%"}, {"measurement": "side effects and tolerability", "setting": "[3]; in vivo", "result": "Side effects were mild and the drug was generally well tolerated"}, {"measurement": "additional benefits, child, Hepatitis B", "setting": "[4]", "result": "resolutions of eczema"}, {"measurement": "serology, child, Hepatitis B", "setting": "[4]; within 7 months", "result": "Sero-conversion to negative antigens and positive antibodies"}, {"measurement": "ALT/AST, child, Hepatitis B", "setting": "[4]; within one month", "result": "decreased to normal"}, {"measurement": "viral load, child, Hepatitis B", "setting": "[4]; within one month, from 59.2 million", "result": "53,000"}, {"measurement": "safety and tolerability", "setting": "[5]; 0.1 mg/kg orally", "result": "well tolerated without any serious adverse events"}, {"measurement": "patients improved with mild disease activity (decrease in PCDAI score by at least 10 points)", "setting": "[5]; [16]", "result": 67, "unit": "%"}, {"measurement": "patients in remission (PCDAI score≤10)", "setting": "[5]; [16]", "result": "Twenty-five"}, {"measurement": "Systemic and social quality of life (Impact III)", "setting": "[5]; P=0.035", "result": "improved"}, {"measurement": "CDAI scores", "setting": "[6]; 4.5 mg/day by mouth each evening, 12 weeks, baseline mean 356+/−27, P=0.01", "result": "decreased significantly"}, {"measurement": "laboratory abnormalities", "setting": "[6]; 4.5 mg/day, 12 weeks", "result": "No laboratory abnormalities were noted"}, {"measurement": "patients with response to therapy", "setting": "[6]; 4.5 mg/day, 12 weeks", "result": "Eighty-nine"}, {"measurement": "patients achieving remission", "setting": "[6]; 4.5 mg/day, 12 weeks, P<0.001", "result": 67, "unit": "%"}, {"measurement": "CDAI scores after end of therapy", "setting": "[6]; 4 weeks after completing therapy", "result": "remained lower than baseline"}, {"measurement": "quality of life surveys (IBDQ, SF-36)", "setting": "[6]; compared with baseline", "result": "Improvement was recorded in both quality of life surveys"}, {"measurement": "subjects with at least a 70-point decline in CDAI scores", "setting": "[7]; 4.5-mg daily oral, placebo 40%, p=0.009", "result": "Eighty-eight"}, {"measurement": "subjects achieving remission with a CDEIS score<6", "setting": "[7]; after 12 weeks, placebo 8%", "result": 33, "unit": "%"}, {"measurement": "subjects with endoscopic response (5-point decline in CDEIS)", "setting": "[7]; after 12 weeks, placebo 28%, p=0.008", "result": 78, "unit": "%"}, {"measurement": "side effects", "setting": "[7]; vs placebo", "result": "Fatigue was the only side effect reported that was significantly greater in subjects receiving placebo"}, {"measurement": "Side effects (including insomnia and vivid dreams)", "setting": "[8]", "result": "rare, and described as minor and transient"}, {"measurement": "mechanical and heat pain thresholds", "setting": "[8]; laboratory visits", "result": "improved"}, {"measurement": "outbreaks, person, Shingles", "setting": "[9]", "result": "have not had a single outbreak"}, {"measurement": "effect of running out of drug, person, myasthenia gravis", "setting": "[10]", "result": "symptoms began to return within 72 hours"}, {"measurement": "Neurological disability", "setting": "[11]; 40 patients", "result": "progressed in only one patient"}, {"measurement": "dropouts and major adverse events", "setting": "[11]; 40 patients", "result": "Five dropouts and two major adverse events occurred"}, {"measurement": "spasticity", "setting": "[11]; end of the six month trial", "result": "significant reduction of spasticity"}, {"measurement": "beta-endorphins (BE) concentration", "setting": "[11]; human, in vivo", "result": "increased during the trial"}, {"measurement": "safety and tolerability", "setting": "[11]; human, in vivo", "result": "safe and well tolerated"}, {"measurement": "medication use, person, psoriatic arthritis", "setting": "[12]; 4.5 mg at bedtime, within 10 days", "result": "able to discontinue all paid medications as well as the Humira"}, {"measurement": "disease course, person, psoriatic arthritis", "setting": "[12]; 4.5 mg, last six months", "result": "the disease has stabilized and the progressive deterioration has stopped"}, {"measurement": "average improvement in FIQR in eleven patients (50%)", "setting": "[13]", "result": 41, "unit": "%"}, {"measurement": "growth of cancer cells", "setting": "[14]; Immediate release low or short-term dosing, control water", "result": "growth of cancer cells was slowed"}, {"measurement": "growth of cancer cells", "setting": "[14]; high dose of naltrexone", "result": "cancer cells were stimulated and grew faster"}, {"measurement": "initial effect, child, Autism", "setting": "[15]; 3 mg", "result": "hyperactivity increased for the first three weeks"}, {"measurement": "side effect, child, Autism", "setting": "[15]; 5 ml at bedtime", "result": "a little constipation"}]}]}
